According to the supplement of paper PMC10307832:

Assays:
Experiment in all cases: relative viability (nuclei count vs DMSO), 5 days (fraction); higher = more cells survive
[1] = compound: CC(C)(C)c1nc(-c2cccc(NS(=O)(=O)c3c(F)cccc3F)c2F)c(-c2ccnc(N)n2)s1 [Dabrafenib] + C[C@@H](Oc1cc(-c2cnn(C3CCNCC3)c2)cnc1N)c1c(Cl)ccc(F)c1Cl [Crizotinib] (partner 1 µM)
Procedure, shortened: (§1)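 Relative viability was taken as the ratio of nuclei in treated wells to nuclei in vehicle wells. Lung cancer cell lines in 1536-well plates received compounds by pin tool one day after seeding, either one drug alone or a fixed anchor-drug dose plus five library-drug doses (not always all listed) in √10 steps. Nuclei were counted on 4× images after 5 days of treatment, and values are medians of duplicate plates.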

[2] = compound: NC(=O)c1ccc(N(C(N)=O)c2c(F)cccc2F)nc1-c1ccc(F)cc1F [VX-702] + COc1cccc2cc(-c3nc([C@H]4CC[C@H](C(=O)O)CC4)n4ncnc(N)c34)[nH]c12 [OSI-027] (partner 0.5 µM)
Procedure, shortened: as §1

[3] = compound: CC(C)(C)c1nc(-c2cccc(NS(=O)(=O)c3c(F)cccc3F)c2F)c(-c2ccnc(N)n2)s1 [Dabrafenib] + Nc1ncn([C@H]2C[C@H](O)[C@@H](CO)O2)c(=O)n1 [Decitabine] (partner 2 µM)
Procedure, shortened: as §1

[4] = compound: CC(C)(C)c1nc(-c2cccc(NS(=O)(=O)c3c(F)cccc3F)c2F)c(-c2ccnc(N)n2)s1 [Dabrafenib] + COc1cccc2cc(-c3nc([C@H]4CC[C@H](C(=O)O)CC4)n4ncnc(N)c34)[nH]c12 [OSI-027] (partner 0.5 µM)
Procedure, shortened: as §1

Cell Line | relative viability ([1]; first compound 0.003 µM) | relative viability ([1]; first compound 0.009487 µM) | relative viability ([1]; first compound 0.03 µM) | relative viability ([1]; first compound 0.09487 µM) | relative viability ([1]; first compound 0.3 µM) | relative viability ([2]; first compound 0.02 µM) | relative viability ([2]; first compound 0.2 µM) | relative viability ([2]; first compound 0.6325 µM) | relative viability ([2]; first compound 2 µM) | relative viability ([3]; first compound 0.003 µM) | relative viability ([3]; first compound 0.009487 µM) | relative viability ([3]; first compound 0.03 µM) | relative viability ([3]; first compound 0.09487 µM) | relative viability ([3]; first compound 0.3 µM) | relative viability ([4]; first compound 0.003 µM) | relative viability ([4]; first compound 0.009487 µM) | relative viability ([4]; first compound 0.03 µM) | relative viability ([4]; first compound 0.09487 µM) | relative viability ([4]; first compound 0.3 µM)
HCC-44 | 0.769 | 0.785 | 0.847 | 0.718 | 0.794 | 0.48 | 0.433 | 0.491 | 0.485 | 1.04 | 0.851 | 0.921 | 0.963 | 0.872 | 0.45 | 0.614 | 0.511 | 0.478 | 0.591
NCI-H1915 | 0.994 | 0.893 | 0.721 | 0.752 | 0.731 | 0.642 | 0.587 | 0.595 | 0.67 | 0.264 | 0.262 | 0.256 | 0.255 | 0.243 | 0.572 | 0.565 | 0.486 | 0.37 | 0.381
NCI-H358 | – | 0.662 | 0.553 | 0.631 | 0.476 | 0.867 | 0.845 | 0.711 | 0.794 | 0.198 | 0.198 | 0.186 | 0.195 | 0.152 | 0.486 | 0.923 | 0.74 | 0.576 | 0.655
NCI-H2126 | 1.01 | 1.02 | 0.986 | 1.01 | 1.01 | 0.774 | 0.593 | 0.693 | 0.713 | 0.578 | 0.591 | 0.57 | 0.653 | 0.609 | 0.492 | 0.787 | 0.717 | 0.609 | 0.954
